The results in this text go back to EP0310305B1 (priority 1987, dated 1989).

One series deals with Ileum. Kind of series: tissue or blood. The conditions noted are these: Rattus norvegicus.
Series [1] concerns male rats (Crj Wister Rat; 180 - 240 g). Kind of series: animal or person. Type of series: in vivo. The conditions noted are these: for ED50: Rattus norvegicus, 0.5 h; for Entero-pooling ED₅₀: rat, in vivo, 30 min.
In another series the test system is healthy male volunteers. The following applies: human, in vivo, po.
The next series deals with Male Crj Wister rats. Kind of series: animal or person. The format is in vivo. The conditions noted are these: Rattus norvegicus, po, 6 h, read-out: Cathartic Effect ED50.
Where [2] appears, read: read-out: Intestinal Contraction.
Setting [3] is: read-out: Intestinal Contrac-tion.

Where two headings read alike, the source gives them in different places. Where only a bound is given, the exact number is not on record here.

On to `CCCCC(F)(F)C(=O)CC[C@@H]1[C@@H](C/C=C\CCCC(=O)OC)[C@@H](O)C[C@H]1O` [Test Drug 14, 13,14-dihydro-15-keto-16,16-difluoro-PGF₂α methyl ester], for which the EC50 in the series with Ileum (setting [2]) lay in the range of 1 to 100 µM. Also, the ED50 in series [1] (read-out: Entero-pooling ED₅₀) was 0.2 mg/kg.

Regarding `CCCCC(F)C(=O)CC[C@@H]1[C@@H](C/C=C\CCCC(=O)OC)[C@@H](O)C[C@H]1O` (stereo partly drawn) [Test Drug 13, 13,14-dihydro-15-keto-16R,S-fluoro-PGF₂α methyl ester], the ED50 in series [1] (read-out: Entero-pooling ED₅₀) came to 0.14 mg/kg.

Regarding `CCCCCC(F)C(=O)CC[C@@H]1[C@@H](C/C=C\CCCC(=O)OC)[C@@H](O)C[C@H]1O` (stereo partly drawn) [Test Drug 15, 13,14-dihydro-15-keto-16R,S-fluoro-20-methyl-PGF₂α methyl ester], in the series with Ileum (setting [2]), the EC50 was in the range of 1 to 100 µM. Further, the ED50 in series [1] (read-out: Entero-pooling ED₅₀) stood at 0.3 mg/kg.

For the compound `CCCCC(F)(F)C(=O)CC[C@H]1[C@H](O)CC(=O)[C@@H]1C/C=C\CCCC(=O)OC` [Test Drug 8, 13,14-dihydro-15-keto-16,16-difluoro-PGE₂ methyl ester], the EC50 with Ileum (setting [2]) was in the range of 1 to 100 µM. Further, in series [1] (read-out: Enteropooling ED₅₀), the ED50 turned out to be 0.0002 mg/kg.

As to `CCCCC(F)C(=O)/C=C/[C@@H]1[C@@H](C/C=C\CCCC(=O)OC)[C@@H](O)C[C@H]1O` (stereo partly drawn) [Test Drug 18, 15-keto-16-R,S-fluoro-PGF₂α methyl ester], in the series with Ileum (setting [2]), the EC50 is above 100 µM. For the same compound, the ED50 in series [1] (read-out: Entero-pooling ED₅₀) is 0.15 mg/kg.

Regarding `CCCCC(F)C(=O)/C=C/[C@H]1[C@H](O)CC(=O)[C@@H]1C/C=C\CCCC(=O)O` (stereo partly shown) [Test Drug 6, 15-keto-16R,S-fluoro-PGE₂], the EC50 with Ileum (setting [2]) was in the range of 1 to 100 µM. Besides, the ED50 in series [1] (read-out: Enteropooling ED₅₀) turned out to be 0.002 mg/kg.

On to `CCCCC(F)C(=O)CC[C@H]1[C@H](O)CC(=O)[C@@H]1C/C=C\CCCC(=O)OCC` (stereo partly shown) [Test Drug 4, 13,14-dihydro-15-keto-16R,S-fluoro-PGE₂ ethyl ester], for which the EC50 in the series with Ileum (setting [2]) lay within 1 to 100 µM. The ED50 in series [1] (read-out: Enteropooling ED₅₀) came to 0.002 mg/kg.

Consider `CCCCC(F)C(=O)CC[C@H]1[C@H](O)CC(=O)[C@@H]1C/C=C\CCCC(=O)OC` (stereo partly shown) [Test Drug 2, 13,14-dihydro-15-keto-16R,S-fluoro-prostaglandin], for which the EC50 in the series with Ileum (setting [3]) fell in the range of 1 to 100 µM. In addition, in the series on healthy male volunteers, the “abnormality or malaise in belly at 8 hours after administration” value is given as “no particular abnormality nor malaise in belly”, the clinical observation result is given as “no abnormality” and the other side effects entry is “no one complained of other side effects such as bellyache”. The ED50 in series [1] (read-out: Entero-pooling ED50) is 0.003 mg/kg. In the series with Male Crj Wister rats, the ED50 worked out at 0.8 mg/kg.

As for `CCCCCC(F)C(=O)CC[C@H]1[C@H](O)CC(=O)[C@@H]1C/C=C\CCCC(=O)OC` (stereo partly shown) [Test Drug 5, 13,14-dihydro-15-keto-16R,S-fluoro-20-methyl-PGE₂ methyl ester], the EC50 in the series on Ileum (setting [2]) was 1 to 100 µM. Also, in series [1] (read-out: Enteropooling ED₅₀), the ED50 is 0.002 mg/kg.

For the compound `CCCCC(F)C(=O)/C=C/[C@H]1[C@H](O)CC(=O)[C@@H]1C/C=C\CCCC(=O)OC` (stereo partly shown) [Test Drug 7, 15-keto-16R,S-fluoro-PGE₂ methyl ester], the EC50 with Ileum (setting [2]) was in the range of 1 to 100 µM. For the same compound, the ED50 in series [1] (read-out: Enteropooling ED₅₀) was 0.002 mg/kg.

For `CCCCC[C@H](O)/C=C/[C@@H]1[C@@H](C/C=C\CCCC(=O)O)[C@@H](O)C[C@H]1O` [Test Drug 19, PGF₂α, reference compound], the EC50 in the series on Ileum (setting [2]) was below 1 µM. In series [1] (read-out: Entero-pooling ED₅₀), the ED50 stood at 4.9 mg/kg.

Regarding `CCCCCCC(F)C(=O)CC[C@@H]1[C@@H](C/C=C\CCCC(=O)O)[C@@H](O)C[C@H]1O` (stereo partly drawn) [Test Drug 16, 13,14-dihydro-15-keto-20-ethyl-16R,S-fluoro-PGF₂α], the EC50 in the series with Ileum (setting [2]) was above 100 µM. Further, the ED50 in series [1] (read-out: Entero-pooling ED₅₀) was 0.7 mg/kg.

For `CCCCC[C@H](O)/C=C/[C@H]1[C@H](O)CC(=O)[C@@H]1C/C=C\CCCC(=O)O` [Test Drug 1, Prostaglandin E2, reference compound], the EC50 with Ileum (setting [3]) was below 1 µM. The values for the ED50 (in series [1] (read-out: Entero-pooling ED50); in the series on Male Crj Wister rats) were 0.13 mg/kg and above 10 mg/kg, respectively.

Turning to “13,14-dihydro-15-keto-16R,S-fluoro-Δ²-PGA₁ [Test Drug 9]”, the “Entero-pooling ED₅₀” value in series [1] was found to be 0.2 mg/kg.

`CCCCC[C@H](O)/C=C/[C@H]1C=CC(=O)[C@@H]1CCCCCCC(=O)O` [Test Drug 11, PGA₁, reference compound]: the ED50 in series [1] (read-out: Entero-pooling ED₅₀) turned out to be 4 mg/kg.

In the case of `CCCCCCC(F)C(=O)CC[C@@H]1[C@@H](C/C=C\CCCC(=O)OC)[C@@H](O)C[C@H]1O` (stereo partly drawn) [Test Drug 17, 13,14-dihydro-15-keto-20-ethyl-16R,S-fluoro-PGF₂α methyl ester], the EC50 with Ileum (setting [2]) lay within 1 to 100 µM. The ED50 in series [1] (read-out: Entero-pooling ED₅₀) was determined as 0.6 mg/kg.

Consider `CCCCC(F)C(=O)CC[C@@H]1[C@@H](C/C=C\CCCC(=O)O)[C@@H](O)C[C@H]1O` (stereo partly drawn) [Test Drug 12, 13,14-dihydro-15-keto-16R,S-fluoro-PGF₂α], for which the EC50 with Ileum (setting [2]) is above 100 µM. Further, the ED50 in series [1] (read-out: Entero-pooling ED₅₀) stood at 0.2 mg/kg.

Turning to “13,14-dihydro-15-keto-16R,S-fluoro-Δ²-PGA₁ methyl ester [Test Drug 10]”, the “Entero-pooling ED₅₀” value in series [1] was found to be 0.2 mg/kg.
